Experimental data published in US20020183332A1, “USE OF CYAMEMAZINE IN THE TREATMENT OF ABRUPT BENZODIAZEPHINE WITHDRAWAL” (priority 1999, published 2002).

Experiments:
[1] = test system: patients treated with benzodiazepines for 3 months or more and requiring benzodiazepine withdrawal; assay: randomized double-blind clinical trial: abrupt benzodiazepine withdrawal with cyamemazine substitution versus gradual withdrawal with bromazepam; format: in vivo; details: for patients in whom the withdrawal is still a success: after 6 months; for patients in whom the treatment is successful: after 6 weeks of study, benzodiazepine withdrawal, 168 patients
[2] = test system: benzodiazepine withdrawal syndrome; details: LADER et al. 1987, SCHWEIZER et al. 1998; cited from earlier work
alcohol uptake in rats = details: NAASILA et al. 1998; cited from earlier work

SMILES | patients in whom the withdrawal is still a success [1] | patients in whom the treatment is successful [1] | effect on the withdrawal syndrome [2] | maximum amplitude of the anxiety rebound ([1]; HARS scale (HAMILTON anxiety scale), cyamemazine group versus bromazepam group) | frequency of occurrence of a withdrawal syndrome ([1]; RICKELS withdrawal scale, cyamemazine group versus bromazepam group) | maximum amplitude of the anxiety rebound ([1]; ZUNG anxiety scale, cyamemazine group versus bromazepam group) | percentage of patients exhibiting an anxiety rebound ([1]; cyamemazine group versus bromazepam group) | action on alcohol uptake (alcohol uptake in rats)
O=C1CN=C(c2ccccn2)c2cc(Br)ccc2N1 [bromazepam] | 75% | 85% |  |  |  |  |  | 
O=C1CC2(CCCC2)CC(=O)N1CCCCN1CCN(c2ncccn2)CC1 [buspirone] |  |  | not shown any significant effect |  |  |  |  | 
CC(CN(C)C)CN1c2ccccc2Sc2ccc(C#N)cc21 (stereo not shown) [cyamemazine] | 90% | 95% |  | no significant difference | no significant difference | no significant difference | no significant difference | decrease of alcohol uptake
